In the supplement of paper PMC10307832:

Experiments:
Test in all cases: relative viability (nuclei count vs DMSO), 5 days (fraction); higher = more cells survive
GW-2580 + Crizotinib = compound: COC1=CC=C(C=C1)COC2=C(C=C(C=C2)CC3=CN=C(N=C3N)N)OC [GW-2580] + C[C@@H](Oc1cc(-c2cnn(C3CCNCC3)c2)cnc1N)c1c(Cl)ccc(F)c1Cl [Crizotinib] (partner 1 µM)
In short: (§1)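 Lung cancer cell lines were pin-tool dosed in 1536-well plates on the day after seeding, with either a lone drug or a fixed anchor-drug dose plus five library-drug doses (not always all listed) in √10 steps. Nuclei were counted on 4× images after 5 days. Relative viability is the ratio of treated-well to vehicle-well nuclei counts, with each value a median of duplicate plates.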

GW-2580 + Linsitinib = compound: COC1=CC=C(C=C1)COC2=C(C=C(C=C2)CC3=CN=C(N=C3N)N)OC [GW-2580] + C[C@]1(O)C[C@@H](c2nc(-c3ccc4ccc(-c5ccccc5)nc4c3)c3c(N)nccn32)C1 [Linsitinib] (partner 1 µM)
In short: as §1

GW-2580 + Pictilisib = compound: COC1=CC=C(C=C1)COC2=C(C=C(C=C2)CC3=CN=C(N=C3N)N)OC [GW-2580] + CS(=O)(=O)N1CCN(Cc2cc3nc(-c4cccc5[nH]ncc45)nc(N4CCOCC4)c3s2)CC1 [Pictilisib] (partner 1 µM)
In short: as §1

GW-2580 + Tozasertib = compound: COC1=CC=C(C=C1)COC2=C(C=C(C=C2)CC3=CN=C(N=C3N)N)OC [GW-2580] + Cc1cc(Nc2cc(N3CCN(C)CC3)nc(Sc3ccc(NC(=O)C4CC4)cc3)n2)n[nH]1 [Tozasertib] (partner 0.1 µM)
In short: as §1

GW-2580 + OSI-027 = compound: COC1=CC=C(C=C1)COC2=C(C=C(C=C2)CC3=CN=C(N=C3N)N)OC [GW-2580] + COc1cccc2cc(-c3nc([C@H]4CC[C@H](C(=O)O)CC4)n4ncnc(N)c34)[nH]c12 [OSI-027] (partner 0.5 µM)
In short: as §1

Cell Line | relative viability (GW-2580 + Crizotinib; first compound 0.08 µM) | relative viability (GW-2580 + Crizotinib; first compound 0.8 µM) | relative viability (GW-2580 + Crizotinib; first compound 2.53 µM) | relative viability (GW-2580 + Crizotinib; first compound 8 µM) | relative viability (GW-2580 + Linsitinib; first compound 0.08 µM) | relative viability (GW-2580 + Linsitinib; first compound 0.8 µM) | relative viability (GW-2580 + Linsitinib; first compound 2.53 µM) | relative viability (GW-2580 + Linsitinib; first compound 8 µM) | relative viability (GW-2580 + Pictilisib; first compound 0.08 µM) | relative viability (GW-2580 + Pictilisib; first compound 0.8 µM) | relative viability (GW-2580 + Pictilisib; first compound 2.53 µM) | relative viability (GW-2580 + Pictilisib; first compound 8 µM) | relative viability (GW-2580 + Tozasertib; first compound 0.08 µM) | relative viability (GW-2580 + Tozasertib; first compound 0.8 µM) | relative viability (GW-2580 + Tozasertib; first compound 2.53 µM) | relative viability (GW-2580 + Tozasertib; first compound 8 µM) | relative viability (GW-2580 + OSI-027; first compound 0.08 µM) | relative viability (GW-2580 + OSI-027; first compound 0.8 µM) | relative viability (GW-2580 + OSI-027; first compound 2.53 µM) | relative viability (GW-2580 + OSI-027; first compound 8 µM)
LCLC-103H | 1.02 | 1.1 | 1.08 | 1.02 | 1.07 | 1.45 | 1.08 | 1.09 | 0.648 | 0.638 | 0.649 | 0.599 | 0.555 | 0.432 | 0.484 | 0.396 | 0.482 | 0.434 | 0.482 | 0.458
LK-2 | 0.22 | 0.247 | 0.218 | 0.208 | 0.558 | 0.573 | 0.23 | 0.534 | 0.476 | 0.569 | 0.428 | 0.552 | 0.173 | 0.166 | 0.192 | 0.171 | 0.208 | 0.19 | 0.208 | 0.189
LOU-NH91 | 0.731 | 0.75 | 0.753 | 0.728 | 0.956 | 0.972 | 0.877 | 1.02 | 0.527 | 0.549 | 0.502 | 0.535 | 0.687 | 0.657 | 0.625 | 0.589 | 0.706 | 0.808 | 0.678 | 0.721
LU99A | 0.662 | 0.633 | 0.524 | 0.535 | 0.749 | 0.57 | 0.427 | 0.517 | 0.274 | 0.322 | 0.251 | 0.294 | 0.27 | 0.294 | 0.23 | 0.235 | 0.294 | 0.263 | 0.306 | 0.34
LXF-289 | 0.846 | 0.818 | 0.775 | 0.705 | 1.02 | 0.992 | 0.997 | 0.858 | 0.82 | 0.849 | 0.653 | 0.672 | 0.191 | 0.188 | 0.161 | 0.157 | 0.999 | 0.859 | 0.857 | 0.731
NCI-H23 | 0.431 | 0.508 | 0.506 | 0.362 | 0.728 | 0.626 | 0.524 | 0.517 | 0.632 | 0.46 | 0.367 | 0.502 | 0.418 | 0.401 | 0.392 | 0.31 | 0.561 | 0.644 | 0.599 | 0.347
NCI-H322M | 0.982 | 0.969 | 0.994 | 0.862 | 1.01 | 0.958 | 0.857 | 1.05 | 0.493 | 0.534 | 0.501 | 0.531 | 0.491 | 0.553 | 0.476 | 0.593 | 0.528 | 0.562 | 0.634 | 0.538
NCI-H358 | 0.654 | 0.543 | 0.554 | 0.502 | 0.888 | 0.849 | 0.707 | 0.684 | 0.356 | 0.32 | 0.28 | 0.308 | 0.103 | 0.117 | 0.11 | 0.104 | 0.944 | 0.817 | 0.667 | 0.742
NCI-H441 | 0.873 | 0.736 | 0.572 | 0.795 | 0.425 | 0.763 | 0.351 | 0.625 | 0.505 | 0.587 | 0.379 | 0.436 | 0.698 | 0.704 | 0.584 | 0.655 | 0.653 | 0.634 | 0.586 | 0.77
NCI-H460 | 1.07 | 1.14 | 0.819 | 0.839 | 1.04 | 1.17 | 0.604 | 0.795 | 0.369 | 0.452 | 0.248 | 0.4 | 0.349 | 0.394 | 0.422 | 0.33 | 0.996 | 0.864 | 0.679 | 0.656
NCI-H520 | 0.791 | 0.956 | 0.763 | 0.621 | 1.03 | 1.18 | 1.16 | 0.985 | 0.35 | 0.287 | 0.279 | 0.332 | 0.421 | 0.459 | 0.443 | 0.46 | 0.276 | 0.316 | 0.241 | 0.272
NCI-H596 | 0.966 | 0.985 | 0.912 | 1.15 | 1.22 | 1.08 | 1.07 | 1 | 0.4 | 0.407 | 0.343 | 0.392 | 0.956 | 1.02 | 0.891 | 0.919 | 0.823 | 0.733 | 0.76 | 0.808
NCI-H647 | 1.28 | 1.47 | 1.05 | 0.957 | 1.39 | 1.39 | 1.09 | 1.33 | 0.37 | 0.515 | – | 0.48 | 0.358 | 0.218 | 0.418 | 0.189 | 0.68 | 0.612 | 0.646 | 0.745
NCI-H650 | 0.834 | 0.663 | 0.668 | 0.594 | 0.94 | 1.02 | 0.547 | 1.17 | 0.786 | 0.979 | 0.71 | 0.78 | 0.721 | 0.743 | 0.669 | 0.589 | 0.55 | 0.585 | 0.465 | 0.518
NCI-H661 | 0.983 | 1.22 | 0.917 | 0.843 | 0.493 | 0.615 | 0.419 | 0.439 | 0.343 | 0.377 | 0.321 | 0.361 | 0.34 | 0.344 | 0.367 | 0.336 | 0.739 | 0.754 | 0.644 | 0.543
